The results in this text go back to ChEMBL document CHEMBL5149975, “Freshwater Fungi as a Source of Chemical Diversity: A Review” (J Nat Prod, 2021).

In brackets after ≈: the same amount, converted by molar mass.

For test [1], the target named is T1, Tyrosine-protein phosphatase non-receptor type 1 (Homo sapiens, UniProt P18031).
T1 sequence (P18031 whole entry): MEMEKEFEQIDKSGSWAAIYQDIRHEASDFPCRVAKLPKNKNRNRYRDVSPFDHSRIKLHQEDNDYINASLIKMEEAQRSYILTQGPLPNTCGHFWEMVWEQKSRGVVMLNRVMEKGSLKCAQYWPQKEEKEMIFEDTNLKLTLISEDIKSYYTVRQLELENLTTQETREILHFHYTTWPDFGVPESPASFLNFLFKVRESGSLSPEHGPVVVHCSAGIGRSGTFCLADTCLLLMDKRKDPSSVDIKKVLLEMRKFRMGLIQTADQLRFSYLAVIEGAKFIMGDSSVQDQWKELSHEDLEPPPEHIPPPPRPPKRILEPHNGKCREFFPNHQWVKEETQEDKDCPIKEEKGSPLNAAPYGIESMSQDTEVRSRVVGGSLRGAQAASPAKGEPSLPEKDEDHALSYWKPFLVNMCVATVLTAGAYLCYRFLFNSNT
Nature of the test: Inhibition of PTP1B (unknown origin).

In test [2] the test system is Pseudomonas aeruginosa. Nature of the test: Antimicrobial activity against Pseudomonas aeruginosa. Format: functional.
Test [3] deals with T2, Tyrosine-protein phosphatase non-receptor type 1 (Homo sapiens) (UniProt P18031).
T2 sequence (whole entry): T1 sequence (P18031 whole entry)
Nature of the test: Inhibition of human recombinant PTP1B (1 to 322 residues) expressed in Escherichia coli using pNPP as substrate at 36 uM incubated for 10 mins followed by substrate addition and measured after 30 mins by microplate reader based analysis relative to control. As to conditions: time 40.0 min.

The test system of test [4] is Staphylococcus aureus. Kind of test: Antibacterial activity against Staphylococcus aureus ATCC25923 measured after 18 hrs by agar dilution method. Format: functional. (In agar dilution the substance is mixed into plates at graded concentrations.)
Test [5] relates to Candida albicans. Nature of the test: Antifungal activity against clinical isolate Candida albicans measured after 24 hrs by agar dilution method. Format: functional.
Test [6] deals with T2, Tyrosine-protein phosphatase non-receptor type 1 (Homo sapiens). Kind of test: Inhibition of PTP1B (unknown origin) at 15.7 uM relative control.
A short description of test [7]: Antioxidant activity of the compound by DPPH assay. Format: functional. (In general: The DPPH test is a chemical assay of radical scavenging.)
Test [8] has as its system Staphylococcus aureus. Kind of test: Antibacterial activity against Staphylococcus aureus ATCC 6538 inhibition of zones at 50 ug per disk by standard disk assay. Format: functional. As to conditions: read-out: IZ.
Test [9] concerns Staphylococcus aureus. Kind of test: Antimicrobial activity against Staphylococcus aureus. It is filed as functional.
For test [10], the system named is Bacillus cereus. Nature of the test: Antibacterial activity against Bacillus cereus by microtiter plate method. Format: functional.
Test [11] has as its system Vibrio anguillarum. Kind of test: Antibacterial activity against Vibrio anguillarum by microtiter plate method. It is filed as functional.
Test [12] has as its system Vibrio parahaemolyticus. Nature of the test: Antibacterial activity against Vibrio parahaemolyticus by microtiter plate method. It is filed as functional.
Test [13] concerns Mycolicibacterium smegmatis. Nature of the test: Antimicrobial activity against Mycobacterium smegmatis. It is filed as functional.
The target of test [14] is T1, Tyrosine-protein phosphatase non-receptor type 1. Kind of test: Inhibition of human recombinant PTP1B (1 to 322 residues) expressed in Escherichia coli using pNPP as substrate incubated for 10 mins followed by substrate addition and measured after 30 mins by microplate reader based analysis.

For the molecule `COC(=O)[C@@]12Oc3ccc(Oc4cccc5c4C(=O)C4=C(O)C[C@H](C)[C@H](O)[C@]4(C(=O)OC)O5)c(O)c3C(=O)C1=C(O)C[C@H](C)[C@H]2O`, it took 6 µM to reach half-maximal inhibition in [1] (IC50).
On to `CC1(C)C=Cc2c(ccc3c2N[C@]2(C[C@@]45NC(=O)[C@]6(CCCN6C4=O)CC5C2(C)C)C3=O)O1` (stereo partly drawn), for which the MIC – broadly, the lowest concentration found to suppress growth – in test [2] was 0.8 µM (≈ 0.358 µg/mL).
Turning to `COc1cc(O)cc(C)c1Oc1cc(C)cc(O)c1O`, the inhibition (in general, the percentage by which the read-out fell short of the control) in test [3] is 32%.
In the case of `C=C1CCC[C@@]2(C)CC(O)[C@H](C(C)(C)O)C[C@]12O` (stereo partly drawn), the MIC in test [4] and in test [5] was greater than 128 µg/mL throughout.
`COC(=O)[C@@]12Oc3ccc(-c4ccc5c(c4O)C(=O)C4=C(O)C[C@H](C)[C@@H](O)[C@]4(C(=O)OC)O5)c(O)c3C(=O)C1=C(O)C[C@H](C)[C@H]2O` had an inhibition in test [6] of 40%.
Take `C=C1C[C@@H](O)C[C@@]2(C)CC[C@H](C(C)(C)O)CC12` (stereo partly drawn): the MIC in test [4] and in test [5] was greater than 128 µg/mL throughout.
As for `O=c1c(O)c(-c2ccc(O)c(O)c2)oc2cc(O)cc(O)c12` [QUERCETIN], the IC50 (as a rule, the midpoint of a concentration-inhibition curve) in test [7] was 5.7 µM.
On to `C=C1CCC[C@@]2(C)CC[C@H](C(C)(C)O)CC12` (stereo partly drawn), for which the MIC in test [4] and in test [5] was greater than 128 µg/mL throughout.
For the molecule `COc1ccc(OC)c2c1OCc1cc(CO)cc(O)c1C2=O`, the zone of inhibition at 50 µg/disc in [8] stood at 11 mm.
As for `COc1ccc(OC)c2c1OCc1cc(C)cc(O)c1C2=O`, in test [8], the zone of inhibition at 50 µg/disc turned out to be 11 mm.
With `COc1cc(O)c2c(c1C)[C@H](C)C(=O)OC2=O`, 33 µg/mL was the least that counted as inhibitory in test [9] (MIC).
As for `O=c1[nH]c2ccccc2c(-c2ccccc2)c1O`, the MIC in test [10], in test [11] and in [12] was 25 µM (≈ 5.93 µg/mL) each time.
The molecule `COC(=O)[C@@]12Oc3c(-c4ccc5c(c4O)C(=O)C4=C(O)C[C@H](C)[C@H](O)[C@]4(C(=O)OC)O5)ccc(O)c3C(=O)C1=C(O)C[C@H](C)[C@H]2O` registered a half-inhibitory concentration (IC50) in test [1] of 5.9 µM.
`COC(=O)[C@@]12Oc3ccc(-c4ccc5c(c4O)C(=O)C4=C(O)C[C@H](C)[C@H](O)[C@]4(C(=O)OC)O5)c(O)c3C(=O)C1=C(O)C[C@H](C)[C@H]2O` gave an IC50 in test [1] of 9.6 µM.
`C=C1CCC[C@@]2(C)C[C@H](O)[C@H](C(C)(C)O)C[C@@]12O`: the MIC in test [4] and in test [5] was greater than 128 µg/mL throughout.
`C=C1CCC[C@@]2(C)CC[C@H](C(C)(C)O)C[C@]12O`: the MIC in test [4] and in test [5] was greater than 128 µg/mL in each case.
In turn, `COC(=O)[C@H]1C[C@@H](C)[C@H]2[C@@H](C=C[C@H](C)[C@@H]2/C=C/C=C/C(=O)O)[C@@H]1C` had an IC50 in [7] of 2.8 µM.
Take `C=C1CCC[C@]2(C)C1C[C@@H](C(C)(C)O)C[C@@H]2O` (stereo partly drawn): the MIC in test [4] and in test [5] was greater than 128 µg/mL throughout.
In the case of `Cc1cc(O)c2c(c1)COc1c(O)ccc(O)c1C2=O`, in test [8], the zone of inhibition at 50 µg/disc was found to be 11 mm.
In the case of `O=C1C=C2OC3(O)CC(=O)c4c(O)cccc4C3=C2c2cccc(O)c21` (stereo not drawn), the figures for the MIC in test [9] and in [13] were 86 µM and 172 µM (≈ 59.9 µg/mL), respectively.
As for `COc1cc(C)c(Oc2cc(C)cc(O)c2)c(O)c1` [CYPERIN], the IC50 in test [14] was 17 µM.
Consider `O=C1c2c(O)cc(CO)cc2COc2c(O)c(O)cc(O)c21`, for which the zone of inhibition at 50 µg/disc in [8] is 11 mm.
Still for that read-out and setting: in the case of `COc1cc(O)c(OC)c2c1C(=O)c1c(O)cc(C)cc1CO2` it was 11 mm.
For the molecule `COc1cc(C)c(Oc2cc(C)cc(O)c2O)c(O)c1`, in test [14], the IC50 amounted to 13 µM.
